According to paper PMC2909451 (European journal of pharmaceutical sciences : official …, 2010):
Counter-ions that a name gives are not always drawn. Like-named read-outs stand apart in the source and are kept apart here.

Columns and labels:
[1] = target: T1, human apical sodium-dependent transporter (SLC10A2, ASBT) (Homo sapiens, UniProt Q12908)
T1 sequence (Q12908 1-348): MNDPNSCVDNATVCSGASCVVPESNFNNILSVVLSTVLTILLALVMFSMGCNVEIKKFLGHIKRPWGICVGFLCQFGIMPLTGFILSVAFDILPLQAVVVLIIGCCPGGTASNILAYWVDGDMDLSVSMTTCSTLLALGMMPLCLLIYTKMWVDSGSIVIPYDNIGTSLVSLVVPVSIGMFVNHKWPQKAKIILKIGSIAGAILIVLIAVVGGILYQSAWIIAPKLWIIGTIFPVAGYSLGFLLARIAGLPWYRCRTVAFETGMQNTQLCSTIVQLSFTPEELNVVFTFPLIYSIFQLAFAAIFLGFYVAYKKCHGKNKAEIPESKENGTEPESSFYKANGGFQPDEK

[2] = target: T1, human apical sodium-dependent transporter (SLC10A2, ASBT); experiment: ASBT cis-inhibition of taurocholate uptake in ASBT-MDCK cells; settings: for potency estimated from few doses: read-out: Ki estimated from one concentration; for inhibition at 25 µM / inhibition at 200 µM / inhibition at 1000 µM / inhibition at 5000 µM / inhibition at 10 µM / inhibition at 5 µM: read-out: percent taurocholate inhibited at the highest inhibitor concentration
[3] = Ki, inhibitor concentration range 0-50 μM, mean±S.E.
[4] = Ki, inhibitor concentration range 0-100 μM, mean±S.E.
[5] = Ki, inhibitor concentration range 0-200 μM, mean±S.E.
[6] = Ki, inhibitor concentration range 0-500 μM, mean±S.E.
[7] = Ki, inhibitor concentration range 0-1000 μM, mean±S.E.
[8] = Ki, inhibitor concentrations 0, 25 μM (Table 2), mean±S.E.
[9] = Reference Ki, from the comprehensive inhibition profile
[10] = Ki, inhibitor concentration range 0-25 μM, mean±S.E.
[11] = Ki, inhibitor concentration range 0-5000 μM, mean±S.E.
[12] = Ki, inhibitor concentration range 0-10 μM, mean±S.E.
[13] = Ki, inhibitor concentration range 0-5 μM, mean±S.E.

| SMILES | inhibition ([1]; 50 µM) [%] | inhibition ([1]; 100 µM) [%] | inhibition ([1]; 500 µM) [%] | Ki [2, 3] [µM] | Ki [2, 4] [µM] | Ki [2, 5] [µM] | Ki [2, 6] [µM] | Ki [2, 7] [µM] | Ki [2, 9] [µM] | potency estimated from few doses [2] [µM] | inhibition at 25 µM [2] [%] | inhibition at 200 µM [2] [%] | inhibition at 1000 µM [2] [%] | Ki [2, 10] [µM] | inhibition at 10 µM [2] [%] | further results |
| --- | --- | --- | --- | --- | --- | --- | --- | --- | --- | --- | --- | --- | --- | --- | --- | --- |
| CC(C)(C#N)c1cc(Cn2cncn2)cc(C(C)(C)C#N)c1 [Anastrozole] | 12 | 13.2 | 35.6 | 231 ± 87 | 451 ± 163 | 700 ± 196 | 686 ± 99 | 745 ± 74 | 745 | 601 ± 69 | 9.73 | 18 | 48.3 |  |  | Ki [2, 8]: 153 ± 79 µM |
| NS(=O)(=O)c1cc2c(cc1C(F)(F)F)NC(Cc1ccccc1)NS2(=O)=O (stereo not shown) [Bendroflumethiazide, bendroflumethiazide] | 30.5 | 37.6 | 63.6 | 84.3 ± 20.7 | 96.4 ± 16.2 | 121 ± 18 | 144 ± 20 | 149 ± 18 | 149 | 188 ± 21 | 8.86 | 46.6 | 79.4 | 166 ± 115 |  |  |
| CCCCNc1cc(C(=O)O)cc(S(N)(=O)=O)c1Oc1ccccc1 [Bumetanide, bumetanide] | 12.2 | 15.6 | 48 | 232 ± 60 | 343 ± 75 | 299 ± 33 | 338 ± 28 | 341 ± 22 | 341 | 354 ± 35 | 7.1 | 32.1 | 65.6 | 211 ± 108 |  |  |
| COCc1c(C(C)C)nc(C(C)C)c(/C=C/[C@@H](O)C[C@@H](O)CC(=O)O)c1-c1ccc(F)cc1 [Cerivastatin, cerivastatin] |  |  |  |  |  |  |  |  |  | 47.4 ± 22.5 |  |  |  |  |  |  |
| CCCCOc1cc(C(=O)NCCN(CC)CC)c2ccccc2n1 [Dibucaine hydrochloride, dibucaine hydrochloride] | 27.6 | 43.8 | 73.7 | 93.2 ± 12.5 | 85.8 ± 7.6 | 96.2 ± 7.7 | 101 ± 7 | 101 ± 6 | 101 | 116 ± 3 | 10.5 | 53.9 | 86.7 |  |  | Ki [2, 8]: 140 ± 17 µM |
| COc1ccc([C@@H]2Sc3ccccc3N(CCN(C)C)C(=O)[C@@H]2OC(C)=O)cc1 [Diltiazem hydrochloride, diltiazem hydrochloride] | 19.5 | 26.5 | 52.4 | 124 ± 16 | 174 ± 26 | 221 ± 28 | 273 ± 30 | 301 ± 28 | 301 | 296 ± 22 | 16 | 36.4 | 66.1 |  |  | Ki [2, 8]: 86.4 ± 11.9 µM |
| CC(C)n1c(/C=C/C(O)CC(O)CC(=O)O)c(-c2ccc(F)cc2)c2ccccc21 (stereo not shown) [Fluvastatin, fluvastatin] | 52.6 | 77 | 95.5 | 27.4 ± 2 | 24.9 ± 1.9 | 25.1 ± 1.6 | 24.9 ± 1.6 | 24.8 ± 1.4 | 24.8 | 29.7 ± 2.4 | 40.2 | 82.9 | 96.2 | 24.5 ± 2.4 |  | Ki [2, 11]: 24.8 ± 1.3 µM; inhibition at 5000 µM [2]: 99.8% |
| COc1ccc2c(c1)c(CC(=O)O)c(C)n2C(=O)c1ccc(Cl)cc1 [Indomethacin, indomethacin] | 27.3 | 46.8 | 76.4 | 80.5 ± 13.7 | 77.9 ± 8.4 | 84.2 ± 7.3 | 87.8 ± 6.8 | 86.4 ± 6 | 86.4 | 86.9 ± 12.5 | 23.2 | 59.1 | 89.5 | 53.9 ± 8.9 | 11 | Ki [2, 12]: 52.6 ± 13.6 µM |
| COC(=O)C1=C(C)NC(C)=C(C(=O)OC(C)C)C1c1cccc2nonc12 (stereo not shown) [Isradipine, isradipine] | 49.7 | 68.1 |  | 42.7 ± 7.4 | 38.8 ± 5.1 | 36.4 ± 4.2 |  |  | 36.4 | 32.7 ± 2.7 | 25.7 | 82.5 |  | 60.4 ± 19.6 | 12.1 | Ki [2, 13]: 17.5 ± 6.6 µM; Ki [2, 12]: 53.4 ± 35.1 µM; Ki ([2]; Ki, inhibitor concentration range 0-[…], mean±S.E.): 9.55 ± 3.67 µM; inhibition at 5 µM [2]: 14.4% |
| CC(C(=O)O)c1cccc(C(=O)c2ccccc2)c1 (stereo not shown) [Ketoprofen, ketoprofen] |  |  | 49.7 |  |  | 255 ± 14 | 305 ± 26 | 328 ± 24 | 310 | 336 ± 26 |  | 34.2 | 64.7 |  |  | Ki [2, 11]: 310 ± 28 µM; inhibition at 5000 µM [2]: 98% |
| Cc1c(OCC(F)(F)F)ccnc1C[S+]([O-])c1nc2ccccc2[nH]1 (stereo not shown) [Lansoprazole] | 29.5 | 39.4 | 73.6 | 62.1 ± 11.3 | 86.9 ± 14.7 | 134 ± 25 | 132 ± 19 | 120 ± 16 | 120 | 116 ± 2 | 30.2 | 44.4 | 91.9 | 40.9 ± 7.09 | 5.99 | Ki ([2]; Ki, inhibitor concentrations 0, 10 μM (Table 4), mean±S.E.): 103 ± 37 µM |
| CC(C)OC(=O)CCC/C=C\C[C@@H]1[C@@H](CC[C@@H](O)CCc2ccccc2)[C@H](O)C[C@@H]1O [Latanoprost, latanoprost] | 60.3 | 79.4 | 96.2 | 15.1 ± 2.4 | 14.3 ± 2 | 13.6 ± 1.9 | 13.3 ± 1.9 |  | 13.3 | 17.3 ± 2.7 | 46.9 | 90 |  | 14 ± 2.8 | 34.3 | Ki [2, 13]: 19.3 ± 6.7 µM; Ki [2, 12]: 12.2 ± 2.9 µM; inhibition at 5 µM [2]: 28.1% |
| CN1CCCCC1CCN1c2ccccc2Sc2ccc([S+](C)[O-])cc21 (stereo not shown) [Mesoridazine besylate] | 31.3 | 52.5 | 79.8 | 69.9 ± 19.5 | 59.6 ± 9.9 | 63.6 ± 8.2 | 64.9 ± 7.3 | 63.5 ± 6.6 | 63.5 | 59.5 ± 7.3 |  | 62.2 | 94 |  |  |  |
